{
  "source": "patent US11613746B2",
  "about": "“Methods for developing virus protein specific capture agents, capture agents, and methods of using the capture agents” (priority 2019, dated 2023)",
  "biological_target": "T1, CHIKV E2 protein (Chikungunya virus, UniProt Q8JUX5)",
  "T1 construct": "incubated with varying concentrations of biotin conjugated CHIKV E2 protein",
  "T1 sequence (Q8JUX5 326-748 limits assumed)": "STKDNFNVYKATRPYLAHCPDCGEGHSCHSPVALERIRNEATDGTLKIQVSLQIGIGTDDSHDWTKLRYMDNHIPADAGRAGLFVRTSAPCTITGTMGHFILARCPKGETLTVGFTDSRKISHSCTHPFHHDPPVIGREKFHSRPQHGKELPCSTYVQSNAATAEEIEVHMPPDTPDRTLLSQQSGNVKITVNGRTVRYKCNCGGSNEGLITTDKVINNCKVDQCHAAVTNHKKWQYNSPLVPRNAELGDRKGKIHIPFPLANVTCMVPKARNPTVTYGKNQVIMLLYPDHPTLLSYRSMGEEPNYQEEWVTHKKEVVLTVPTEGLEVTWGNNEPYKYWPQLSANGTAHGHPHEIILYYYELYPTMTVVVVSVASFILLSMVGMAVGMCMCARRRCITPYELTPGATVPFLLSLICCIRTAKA",
  "assay": "LUMINEX binding assay (sandwich-type) of bead-attached capture agents with biotin conjugated CHIKV E2 protein",
  "conditions": "for EC50: FIG. 9",
  "method": "Referring to FIG. 4, the binding performance of each capture agent is determined using a LUMINEX® binding assay, which is essentially the same as a sandwich-type ELISA, where the peptides are attached to a bead as a one-arm polyethylene glycol (PEG) or three-arm PEG construct. By allowing these beads to interact with varying concentrations of the CHIKV E2 protein, one can determine and compare the binding performance of each capture agent construct. A smaller value of the variable on the horizontal axis at the inflection point of a given plot for a corresponding capture agent indicates stronger binding for the corresponding capture agent with respect to the target protein or target molecule.\nReferring to FIG. 4, the assay for an illustrative example was performed on a LUMINEX® 200 instrument. LUMINEX®'s xMAP technology drives multiplexed assay capabilities by combining fluidics, optics, and digital signal processing with microsphere technology. The LUMINEX® 200 is capable of testing up to 100 analytes simultaneously from a single sample and is the leading multiplex immunoassay technology. In general, the color-coded microspheres are the substrate on which the solution phase assays are performed, where a specific microsphere color corresponds to an individual receptor attached to the microsphere surface.\nIn one illustrative example, 6 separate microsphere regions were first functionalized with a single arm polyethlyglycine (PEG) azide molecule. Each microsphere region was then reacted with an individual, alkyne-functionalized cyclic peptide (with the sequence WIYYI, IYLRY, YWHWS, FWQIL), or an equal combination of all sequences (noted as “polyclonal”). As a control, polyclonal Anti-E2 antibody was attached to a bead region for performance comparison against the peptide constructs. In an analogous experiment, the exact same process was repeated, except the single arm PEG azide molecule was switched to a 3-arm PEG azide molecule.\nThe details of some of the synthesis and experimental techniques useful in the embodiments herein can be found in United States Patent Application Publication No. US 2017/0349754 A1, by Matthew B. Coppock, published Dec. 7, 2017, M. B. Coppock et al., “A novel discovery, maturation, and assay integration approach for the development of ruggedized multi-valent capture receptors exemplified against the chikungunya virus E2 protein,” Sensing and Bio-Sensing Research 22 (2019) 100248, and M. B. Coppock, D. N. Stratis-Cullum, “A universal method for the functionalization of dyed magnetic microspheres with peptides,” Methods 158 (2019) 12-16, all of which, including their supplemental parts and appendices, are incorporated by reference herein in their entirety. […]",
  "note": "Where two headings read alike, the source gives them in different places.",
  "data": [
    {"substance": "WIYYI", "values": [
      {"measurement": "binding activity remaining after heating", "setting": "heated at 90° C. for 1 hr, result in words", "value": "no loss in binding activity"},
      {"measurement": "binding performance compared to commercially available antibody raised against E2", "setting": "multi-arm constructs, result in words", "value": "outperform the antibody"}
    ]},
    {"substance": "WIYYI (chains of the parent or of the whole protein)", "values": [
      {"measurement": "EC50", "setting": "heated at 90° C. for 1 hr before assay, read-out: EC50 (binding activity for CHIKV E2) after heating", "value": "0.245 ± 0.005", "unit": "nM"},
      {"measurement": "EC50", "setting": "unheated control, LUMINEX assay, read-out: EC50 (binding activity for CHIKV E2) before heating", "value": "0.232 ± 0.006", "unit": "nM"}
    ]}
  ]
}
